From patent publication US8604053B2, “TRPV1 antagonists” (AbbVie Inc., priority 2008, dated 2013)

Experiments:
[1] = molecular target: T1, CYP2C9 (Homo sapiens, UniProt P11712); assay: CYP2C9 inhibition assay; type: in vitro ADME; conditions: pH 7.4, probe Luciferin-H (100 μM final), human liver microsomes, substrate Luciferin-H, read-out: CYP2C9 % inh @ 2.2 μM
T1 construct: human liver microsomes (BD Gentest); tissue BD Gentest; host or cells: human liver microsomes
Protocol: Stock solutions of test compounds were assayed in 96-well format for their ability to inhibit CYP2C9, CYP2D6, or CYP3A4 mediated metabolism of test substrates. Luciferin-H was used as the substrate for CYP2C9; 3-[2-(N,N-diethyl-N-methylammonium)ethyl]-7-methoxy-4-methylcoumarin (AMMC) was used as the substrate for CYP2D6; 7-benzyloxyquiniline (BZQ) was used as the substrate for CYP3A4. For each subtype, positive controls (sulphaphenazole in the case of CYP2C9; quinidine in the case of CYP2D6, ketoconazole in the case of CYP3A4) were used to validate assay results run in duplicate.
Pre-Incubation Mixture Preparation for CYP2C9 and CYP2D6: A pre-incubation mixture was prepared by combining 100 mM phosphate buffer (9.12 mL; pH 7.4), human liver microsomes (BD Gentest, 240 itt; final concentration: 0.4 mg/mL), and 10 mM nicotinamide adenine dinucleotide phosphate in 65.4 mM MgCl2 hexahydrate (120 μL; final concentration: 125 μM and 818 μM, respectively). To this was mixture is added a ‘regeneration’ mixture (120 μL) of 333 mM glucose-6-phosphate and 40 U/mL glucose-6-phosphate dehydrogenase in 5 mM sodium citrate (final concentration: 4 mM, 0.5 U/mL, and 0.06 mM, respectively).
Substrate Mixture Preparation for CYP2C9: To a solution of 25 mM phosphate buffer, (2.16 mL, pH 7.4) was added 5 mM Luciferin-H (Promega P450 Glo Assay V8792, 240 μL; final solution concentration 0.5 mM, final assay concentration 100 μM).
CYP2C9 Inhibiton Assay: To each well in the assay plate containing varying concentrations of test compound or control compound in DMSO (10 μL) Pre-Incubation Mixture (40 itt) was added to the wells and the assay plate was pre-incubated for 10 minutes at 37° C., with shaking or rocking. CYP2C9 Substrate Mixture (10 μL) was added to all wells and the assay plate was incubated for an additional 25 minutes at 37° C., with shaking or rocking. Final DMSO concentration was 1%. Luciferin-H detection reagent (Promega kit V8792, 50 μL) was added to all wells. The plate was then vortexed at ambient temperature for between 20 minutes and 2 hours, and the luminescence of each well was then read and recorded.

[2] = molecular target: T2, CYP3A4 (Homo sapiens, UniProt P08684); assay: CYP3A4 inhibition assay; type: in vitro ADME; conditions: pH 7.4, probe 7-benzyloxyquiniline (BZQ), 50 μM final, human liver microsomes, substrate BZQ, read-out: CYP3A4 % inh @ 2.2 μM
T2 construct: human liver microsomes (BD Gentest, 450 μL; final concentration: 0.4 mg/mL); tissue BD Gentest; host or cells: human liver microsomes
Protocol: Luciferin-H was used as the substrate for CYP2C9; 3-[2-(N,N-diethyl-N-methylammonium)ethyl]-7-methoxy-4-methylcoumarin (AMMC) was used as the substrate for CYP2D6; 7-benzyloxyquiniline (BZQ) was used as the substrate for CYP3A4.
Pre-Incubation Mixture Preparation for CYP3A4: A pre-incubation mixture was prepared by combining 100 mM phosphate buffer (19.35 mL; pH 7.4), human liver microsomes (BD Gentest, 450 μL; final concentration: 0.4 mg/mL), and 10 mM nicotinamide adenine dinucleotide phosphate in 65.4 mM MgCl2 hexahydrate (225 μL; final concentration: 100 μM and 654 μM, respectively). To this was mixture was added a ‘regeneration’ mixture (225 μL) of 333 mM glucose-6-phosphate and 40 U/mL glucose-6-phosphate dehydrogenase in 5 mM sodium citrate (final concentration: 3.3 mM, 0.4 U/mL, and 0.05 mM, respectively).
Substrate Mixture Preparation for CYP3A4: To a solution of 100 mM phosphate buffer, (2.36 mL, pH 7.4) was added 30 mM BZQ in acetonitrile (40 μL; final solution concentration 0.5 mM, final assay concentration 50 μM).
CYP3A4 Inhibiton Assay: To each well in the assay plate containing varying concentrations of test compound or control compound in DMSO (10 μL), CYP3A4 Pre-Incubation Mixture (90 μL) was added to the wells and the assay plate was pre-incubated for 10 minutes at 37° C., with shaking or rocking. A pre-read of each well was performed at 405 nm and 535 nm extinction/emission. CYP3A4 Substrate Mixture (10 μL) was added to all wells and the assay plate was incubated for an additional […] at 37° C., with shaking or rocking. Final DMSO concentration was 1%. A post-read of each well was then performed at 405 nm and 535 nm extinction/emission.

[3] = Rat telemetry protocol, core body temperature; type: in vivo; conditions: core body temperature of rats one hour post dosing, 100 μmol/kg p.o., relative to vehicle
Summary of the method: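 Male Sprague Dawley rats (225–250 g) with intraperitoneal telemetry transmitters, 2-week recovery. Single oral 100 μmol/kg dose in 10% EtOH/20% Tween-80/70% PEG-400; core body temperature recorded every 15 min over 24 h.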

T1 sequence (P11712 whole entry): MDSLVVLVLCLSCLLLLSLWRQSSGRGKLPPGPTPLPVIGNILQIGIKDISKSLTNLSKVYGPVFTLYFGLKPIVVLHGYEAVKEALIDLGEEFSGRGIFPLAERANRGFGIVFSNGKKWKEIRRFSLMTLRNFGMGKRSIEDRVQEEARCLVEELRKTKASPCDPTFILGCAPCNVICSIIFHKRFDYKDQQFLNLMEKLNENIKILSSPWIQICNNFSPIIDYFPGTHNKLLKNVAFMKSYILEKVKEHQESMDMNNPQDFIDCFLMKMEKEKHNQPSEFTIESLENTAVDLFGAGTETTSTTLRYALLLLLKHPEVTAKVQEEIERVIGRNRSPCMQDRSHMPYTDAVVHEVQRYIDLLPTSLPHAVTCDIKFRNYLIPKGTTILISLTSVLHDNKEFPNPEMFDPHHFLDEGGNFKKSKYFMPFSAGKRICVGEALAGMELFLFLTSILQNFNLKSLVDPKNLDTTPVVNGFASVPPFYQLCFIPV
T2 sequence (P08684 whole entry): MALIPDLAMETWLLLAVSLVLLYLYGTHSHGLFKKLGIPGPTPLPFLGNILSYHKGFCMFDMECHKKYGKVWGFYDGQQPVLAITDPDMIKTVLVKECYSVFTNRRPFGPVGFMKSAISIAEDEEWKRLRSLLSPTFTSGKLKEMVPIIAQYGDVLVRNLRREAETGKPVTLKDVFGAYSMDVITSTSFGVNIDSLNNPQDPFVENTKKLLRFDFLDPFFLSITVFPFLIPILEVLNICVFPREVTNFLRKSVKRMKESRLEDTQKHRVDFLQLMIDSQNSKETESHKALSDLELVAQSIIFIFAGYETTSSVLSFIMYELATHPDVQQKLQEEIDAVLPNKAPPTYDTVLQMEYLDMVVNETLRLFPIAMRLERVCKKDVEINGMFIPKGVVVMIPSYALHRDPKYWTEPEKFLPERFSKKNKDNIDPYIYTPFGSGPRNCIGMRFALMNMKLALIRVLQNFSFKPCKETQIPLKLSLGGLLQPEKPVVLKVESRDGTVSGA

Q: With `Cc1cc2c(NC(=O)N[C@@H]3CC(CF)(CF)Oc4c(OC(F)(F)F)cccc43)cccc2cn1` [Example 87, N-[(4R)-2,2-bis(fluoromethyl)-8-(trifluoromethoxy)-3,4-dihydro-2H-chromen-4-yl]-N′-(3-methylisoquinolin-5-yl)urea] as the compound, how does the inhibition at 25 min, 2.2 µM [1] read?
A: Its inhibition at 25 min, 2.2 µM is 25%.

Q: And the inhibition at 25 min, 2.2 µM [2]?
A: The inhibition at 25 min, 2.2 µM was 0%.

Q: What about the “Δ Temp (° C.)” value [3] of the same compound?
A: Its value is −2.0 °C.

Q: Which inhibition at 25 min, 2.2 µM [1] does the source give for `Cc1cc2c(NC(=O)N[C@@H]3CC(CF)(CF)Oc4c(Cl)cccc43)cccc2cn1` [Example 91, N-[(4R)-8-chloro-2,2-bis(fluoromethyl)-3,4-dihydro-2H-chromen-4-yl]-N′-(3-methylisoquinolin-5-yl)urea] here?
A: The inhibition at 25 min, 2.2 µM was 13%.

Q: And the inhibition at 25 min, 2.2 µM [2]?
A: The inhibition at 25 min, 2.2 µM was 3.8%.

Q: And the “Δ Temp (° C.)” value [3]?
A: Its value is −0.1 °C.

Q: Which inhibition at 25 min, 2.2 µM [1] does the source give for `Cc1cc2c(NC(=O)N[C@@H]3CC(C)(C)Oc4c(OC(F)(F)F)cccc43)cccc2cn1` [Example 94, N-[(4R)-2,2-dimethyl-8-(trifluoromethoxy)-3,4-dihydro-2H-chromen-4-yl]-N′-(3-methylisoquinolin-5-yl)urea] here?
A: The inhibition at 25 min, 2.2 µM was 5.2%.

Q: What about the inhibition at 25 min, 2.2 µM [2] of the same compound?
A: Its inhibition at 25 min, 2.2 µM is 0%.

Q: What about the “Δ Temp (° C.)” value [3] of the same compound?
A: Its value is −2.0 °C.

Q: Which results are given for `Cc1cc2c(NC(=O)N[C@@H]3CC(C)(C)Oc4cc(F)ccc43)cccc2cn1` [Example 95, N-[(4R)-7-fluoro-2,2-dimethyl-3,4-dihydro-2H-chromen-4-yl]-N′-(3-methylisoquinolin-5-yl)urea]?
A: inhibition at 25 min, 2.2 µM [1]: 0%; inhibition at 25 min, 2.2 µM [2]: 0%; Δ Temp (° C.) [3]: 0.0 °C

Q: For `Cc1cc2c(NC(=O)N[C@@H]3CC(CF)(CF)Oc4cc(F)ccc43)cccc2cn1` [Example 96, N-[(4R)-7-fluoro-2,2-bis(fluoromethyl)-3,4-dihydro-2H-chromen-4-yl]-N′-(3-methylisoquinolin-5-yl)urea], which inhibition at 25 min, 2.2 µM [1] is on record?
A: The inhibition at 25 min, 2.2 µM was 4.1%.

Q: What about the inhibition at 25 min, 2.2 µM [2] of the same compound?
A: Its inhibition at 25 min, 2.2 µM is 0%.

Q: What about the “Δ Temp (° C.)” value [3] of the same compound?
A: The value was 0.0 °C.

Q: With `Cc1cc2c(NC(=O)N[C@@H]3CC(C)(C)Oc4cc(Cl)ccc43)cccc2cn1` [Example 97, N-[(4R)-7-chloro-2,2-dimethyl-3,4-dihydro-2H-chromen-4-yl]-N′-(3-methylisoquinolin-5-yl)urea] as the compound, how does the inhibition at 25 min, 2.2 µM [1] read?
A: The inhibition at 25 min, 2.2 µM was 17%.

Q: What about the inhibition at 25 min, 2.2 µM [2] of the same compound?
A: The inhibition at 25 min, 2.2 µM was 0%.

Q: And the “Δ Temp (° C.)” value [3]?
A: Its value is 0.4 °C.

Q: Which results are given for `Cc1cc2c(NC(=O)N[C@@H]3CC(C)(C)Oc4c3ccc(F)c4Cl)cccc2cn1` [Example 110, N-[(4R)-8-chloro-7-fluoro-2,2-dimethyl-3,4-dihydro-2H-chromen-4-yl]-N′-(3-methylisoquinolin-5-yl)urea]?
A: inhibition at 25 min, 2.2 µM [1]: 13%; inhibition at 25 min, 2.2 µM [2]: 0.25%; Δ Temp (° C.) [3]: −1.1 °C

Q: Which inhibition at 25 min, 2.2 µM [1] does the source give for `Cc1cc2c(NC(=O)N[C@@H]3CC(C)(C)Oc4c3ccc(F)c4F)cccc2cn1` [Example 113, N-[(4R)-7,8-difluoro-2,2-dimethyl-3,4-dihydro-2H-chromen-4-yl]-N′-(3-methylisoquinolin-5-yl)urea] here?
A: Its inhibition at 25 min, 2.2 µM is 7.6%.

Q: And the inhibition at 25 min, 2.2 µM [2]?
A: Its inhibition at 25 min, 2.2 µM is 9%.

Q: And the “Δ Temp (° C.)” value [3]?
A: Its value is 0.0 °C.

Q: Which inhibition at 25 min, 2.2 µM [1] does the source give for `Cc1cc2c(NC(=O)N[C@@H]3CC(C)(C)Oc4cc(C(F)(F)F)ccc43)cccc2cn1` [Example 118, N-[(4R)-2,2-dimethyl-7-(trifluoromethyl)-3,4-dihydro-2H-chromen-4-yl]-N′-(3-methylisoquinolin-5-yl)urea] here?
A: The inhibition at 25 min, 2.2 µM was 7.8%.

Q: And the inhibition at 25 min, 2.2 µM [2]?
A: The inhibition at 25 min, 2.2 µM was 0%.

Q: And the “Δ Temp (° C.)” value [3]?
A: Its value is 0.0 °C.

Q: For `Cc1cc2c(NC(=O)N[C@@H]3CC(C)(C)Oc4c(F)cccc43)cccc2cn1` [Example 119, N-[(4R)-8-fluoro-2,2-dimethyl-3,4-dihydro-2H-chromen-4-yl]-N′-(3-methylisoquinolin-5-yl)urea], which inhibition at 25 min, 2.2 µM [1] is on record?
A: Its inhibition at 25 min, 2.2 µM is 2.1%.

Q: And the inhibition at 25 min, 2.2 µM [2]?
A: Its inhibition at 25 min, 2.2 µM is 0%.

Q: What about the “Δ Temp (° C.)” value [3] of the same compound?
A: Its value is 0.0 °C.

Q: With `Cc1cc2c(NC(=O)N[C@@H]3CC(CF)(CF)Oc4c(F)cc(F)cc43)cccc2cn1` [Example 120, N-[(4R)-6,8-difluoro-2,2-bis(fluoromethyl)-3,4-dihydro-2H-chromen-4-yl]-N′-(3-methylisoquinolin-5-yl)urea] as the compound, how does the inhibition at 25 min, 2.2 µM [1] read?
A: The inhibition at 25 min, 2.2 µM was 11%.

Q: And the inhibition at 25 min, 2.2 µM [2]?
A: Its inhibition at 25 min, 2.2 µM is 25%.

Q: And the “Δ Temp (° C.)” value [3]?
A: Its value is −0.5 °C.
